The text below walks through data of patent US20100167275A1, “Potassium channel mutants of the yeast Saccharomyces cerevisiae and their use for screening eukaryotic potassium channels” (sanofi-aventis Deutschland GmbH, priority 2000, published 2010).

In data set [1] the target is T1, human Kv1.5 channel (Homo sapiens, UniProt P22460, DEL187-187/DEL55-55/P188G/P307A/R154P).
T1 construct: expressed in transfected cells; host or cells: Saccharomyces cerevisiae Δtrk1 Δtrk2 Δtok1 (YM195; also Δtrk1 Δtrk2 YM190), vector p423-GPD3
The data set is described as follows: Complementation of growth deficiency by Kv1.5 in the presence of activators. It counts as cell-based. The source says:
(§1) Each of the strains YM168 (Δtrk1 Δtrk2) and YM182 (Δtrk1 Δtrk2 Δtok1) was transformed with the human potassium channels Kv1.5 ((Fedida, D. et al, 1998); YM190 and YM195) and HERG1 ((Fedida, D. et al., 1998); YM191 and YM196) in p423-GPD3, respectively, as yeast expression vector. gpIRK1 ((Tang, W. et al., 1995); YM193 and YM198) acted as positive control in p423-GPD3 as yeast expression vector (Mumberg, D. et al., 1995; Ronicke, V. et al., 1997). The blank vector p423-GPD3 (YM189 and YM194) acted as negative control. The transformed yeast strains were plated onto (−)HIS/80 mM KCl medium. After this, patches of single colonies were replica-plated onto DPM/5 mM KCl (pH 6.5) to check the capacity of complementing the potassium deficiency.
(§2) Kv1.5: Rb^+ extends the hyperpolarization phase. This means that the inwardly directed K^+ flux is more prolonged and increases the possibility of complementing the growth deficiency.
The yeast strains YM 194 and YM 195 were tested in DPM/-HIS/5 mM KCl with 1 mM RbCl for the different growth behavior in liquid medium. To this end, 10 ml of overnight culture were set up in DPM/-HIS/80 mM KCl and, next morning, brought to an OD600 of 0.05 with the relevant media (final volume: 20 ml). The optical density at 600 nm was determined at defined intervals with the aid of a photometer.

For data set [2], the target named is T2, human HERG1 channel (Homo sapiens, UniProt Q12809).
T2 construct: expressed in transfected cells; host or cells: Saccharomyces cerevisiae Δtrk1 Δtrk2 Δtok1 (YM182 background; strain YM196), vector p423-GPD3
The data set is described as follows: Complementation of growth deficiency by HERG1 on culture plates in the presence of activators. The note with it: 2 mM CsCl, DPM 5 mM KCl pH 6.5, FIG. 4. It counts as cell-based.
Excerpt: as §1, §2
HERG: Cs^+ extends the hyperpolarization phase. This means that the inwardly directed K^+ flux is more prolonged and increases the possibility of complementing the growth deficiency. This channel is inhibited by Cs^+. IRK1: Cs^+ blocks this channel.

The target in data set [3] is T3, gpIRK1 (Cavia porcellus, UniProt P52185).
T3 construct: expressed in transfected cells; host or cells: Saccharomyces cerevisiae Δtrk1 Δtrk2 (YM193) and Δtrk1 Δtrk2 Δtok1 (YM198), vector p423-GPD3
T3 sequence (P52185 1-427): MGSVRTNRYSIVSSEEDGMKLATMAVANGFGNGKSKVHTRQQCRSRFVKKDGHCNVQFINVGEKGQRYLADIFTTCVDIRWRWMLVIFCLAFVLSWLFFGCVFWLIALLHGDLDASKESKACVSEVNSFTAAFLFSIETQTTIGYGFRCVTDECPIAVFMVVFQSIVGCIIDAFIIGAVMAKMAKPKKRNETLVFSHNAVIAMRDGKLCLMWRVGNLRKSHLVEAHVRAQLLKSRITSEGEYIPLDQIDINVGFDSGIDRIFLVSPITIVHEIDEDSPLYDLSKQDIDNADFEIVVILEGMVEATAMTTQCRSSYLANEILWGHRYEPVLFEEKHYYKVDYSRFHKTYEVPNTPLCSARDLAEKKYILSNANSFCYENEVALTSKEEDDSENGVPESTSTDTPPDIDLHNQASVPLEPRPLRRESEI
The data set is described as follows: Complementation of growth deficiency by gpIRK1 in the presence of CsCl. The format is cell-based, guinea pig. The conditions noted are these: 2 mM CsCl.
Excerpt: as §1

Data set [4] concerns the target T4, human potassium channel ROMK2 (Homo sapiens, UniProt P48048).
T4 construct: expressed in transfected cells; host or cells: Saccharomyces cerevisiae Δtrk1Δtrk2Δtok1, strain YM256, vector p423GPD
T4 sequence (P48048 1-372 isoform P48048-2): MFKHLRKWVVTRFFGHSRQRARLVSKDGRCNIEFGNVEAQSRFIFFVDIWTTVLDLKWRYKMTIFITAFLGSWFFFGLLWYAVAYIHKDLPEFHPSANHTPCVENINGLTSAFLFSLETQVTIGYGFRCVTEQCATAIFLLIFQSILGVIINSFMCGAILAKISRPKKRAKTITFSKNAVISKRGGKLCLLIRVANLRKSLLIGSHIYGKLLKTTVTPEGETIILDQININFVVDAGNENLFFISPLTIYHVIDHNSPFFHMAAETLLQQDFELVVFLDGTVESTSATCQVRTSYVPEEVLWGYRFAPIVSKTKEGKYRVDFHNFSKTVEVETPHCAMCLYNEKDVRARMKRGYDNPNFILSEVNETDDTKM
The data set is described as follows: Growth of triple mutant Δtrk1Δtrk2Δtok1 expressing ROMK2 (YM256), OD 620 nm. It counts as cell-based. The conditions noted are these: 2 mM RbCl. The source says:
The human potassium channel ROMK2 ((Shuck, M. E. et al., 1994; Bock, J. H. et al., 1997); Sequence SEQ ID NO. 31 hROMK2) was subcloned into the yeast vector p423GPD and transformed into the triple mutant Δtrk1Δtrk2Δtok1.

Data set [5] deals with triple mutant Δtrk1Δtrk2Δtok1 with p423GPD. The data set is described as follows: Growth of triple mutant Δtrk1Δtrk2Δtok1 with blank vector p423GPD (YM194), OD 620 nm. The note with it: 2 mM RbCl; DPM-HIS 5 mM KCl, pH 6.5, 24 hours growth, starting OD 0.01. It counts as cell-based, Saccharomyces cerevisiae.
Method: The cell density was measured after 24 hours' growth (density of the starter culture: 0.01 OD620) via determination of the optical density at a wavelength of 620 nm. The values corresponded to the average of in each case 4 measurements±SD.

T1 sequence (P22460 with tags, fused parts or gaps DEL55-55/R154P/DEL187-187/P188G/P307A): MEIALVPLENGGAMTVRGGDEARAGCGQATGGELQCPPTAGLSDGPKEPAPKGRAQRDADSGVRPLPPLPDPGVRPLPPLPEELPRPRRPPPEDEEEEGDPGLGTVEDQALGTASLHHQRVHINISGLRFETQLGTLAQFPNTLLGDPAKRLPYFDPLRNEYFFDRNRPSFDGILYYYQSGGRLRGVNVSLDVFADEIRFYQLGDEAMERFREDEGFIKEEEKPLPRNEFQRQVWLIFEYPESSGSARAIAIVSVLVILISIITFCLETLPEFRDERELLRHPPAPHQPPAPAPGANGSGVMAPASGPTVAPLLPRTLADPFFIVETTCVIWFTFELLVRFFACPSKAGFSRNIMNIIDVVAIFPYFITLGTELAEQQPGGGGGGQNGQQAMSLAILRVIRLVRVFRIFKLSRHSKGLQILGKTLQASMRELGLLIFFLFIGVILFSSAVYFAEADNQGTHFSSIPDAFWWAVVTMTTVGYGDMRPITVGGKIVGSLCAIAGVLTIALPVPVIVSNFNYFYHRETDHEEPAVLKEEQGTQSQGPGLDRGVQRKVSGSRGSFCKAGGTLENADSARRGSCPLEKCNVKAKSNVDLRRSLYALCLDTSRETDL
T2 sequence (Q12809 whole entry): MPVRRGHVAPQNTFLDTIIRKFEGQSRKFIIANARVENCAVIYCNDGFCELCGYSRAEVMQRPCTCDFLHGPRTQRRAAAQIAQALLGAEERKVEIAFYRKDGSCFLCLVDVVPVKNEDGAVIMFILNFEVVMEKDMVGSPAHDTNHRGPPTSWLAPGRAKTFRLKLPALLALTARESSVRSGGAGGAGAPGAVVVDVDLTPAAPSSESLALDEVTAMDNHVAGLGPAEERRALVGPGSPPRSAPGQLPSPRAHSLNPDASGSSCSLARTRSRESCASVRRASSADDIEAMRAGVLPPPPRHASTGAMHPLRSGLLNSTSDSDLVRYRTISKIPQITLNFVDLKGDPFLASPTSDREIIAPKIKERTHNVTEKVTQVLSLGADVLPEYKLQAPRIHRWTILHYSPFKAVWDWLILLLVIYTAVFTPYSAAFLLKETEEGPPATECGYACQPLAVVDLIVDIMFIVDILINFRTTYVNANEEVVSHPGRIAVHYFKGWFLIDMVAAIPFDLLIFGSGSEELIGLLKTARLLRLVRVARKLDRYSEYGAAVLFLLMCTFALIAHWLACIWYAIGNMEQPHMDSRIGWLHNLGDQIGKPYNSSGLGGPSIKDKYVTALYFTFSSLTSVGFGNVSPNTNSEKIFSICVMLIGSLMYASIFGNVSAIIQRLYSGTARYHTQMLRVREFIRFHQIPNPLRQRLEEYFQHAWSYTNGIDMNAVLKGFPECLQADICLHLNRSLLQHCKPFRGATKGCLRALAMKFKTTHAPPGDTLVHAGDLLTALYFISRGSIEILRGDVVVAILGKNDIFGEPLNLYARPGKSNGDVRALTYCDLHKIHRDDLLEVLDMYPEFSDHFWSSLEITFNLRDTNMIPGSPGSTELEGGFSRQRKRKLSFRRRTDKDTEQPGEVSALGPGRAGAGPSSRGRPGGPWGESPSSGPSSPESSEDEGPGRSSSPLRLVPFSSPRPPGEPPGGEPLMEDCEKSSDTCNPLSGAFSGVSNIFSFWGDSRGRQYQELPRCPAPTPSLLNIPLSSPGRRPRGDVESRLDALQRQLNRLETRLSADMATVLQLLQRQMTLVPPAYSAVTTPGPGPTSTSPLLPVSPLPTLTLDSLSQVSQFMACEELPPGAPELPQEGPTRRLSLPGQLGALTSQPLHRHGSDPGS

For the compound `[Cl-].[Cs+]` [CsCl], the “complementation of the growth deficiency by Kv1.5 in the presence of CsCl” value in data set [1] (2 mM CsCl) is given as “inhibited”. Besides, the “complementation of the growth deficiency of the Δtrk1 Δtrk2 Δtok1 mutant by human HERG1 in the presence of activator” value in data set [2] is “fully complementing”. Besides, the “complementation of the growth deficiency by gpIRK1 in the presence of CsCl” value in data set [3] was “inhibited”.

In the case of `[Cl-].[Rb+]` [RbCl], the “256 (average growth of p423GPD-ROMK2 strain YM256, OD)” value in data set [4] (DPM-HIS 5 mM KCl, pH 6.5, 24 hours growth, starting OD 0.01) amounted to 0.44. Besides, the “Signal to noise ratio S/N” value in data set [4] (YM256 versus YM194, DPM-HIS 5 mM KCl, pH 6.5, 24 hours) was 8.46. For the same compound, in data set [5], the “194 (average growth of p423GPD strain YM194, OD)” value came out at 0.048. Besides, the “complementation of the growth deficiency of the Δtrk1 Δtrk2 Δtok1 mutant by human Kv1.5 in the presence of activator” value in data set [1] (2 mM RbCl, culture plates, DPM 5 mM KCl pH 6.5, FIG. 3) is recorded as “fully complementing”.
